Structures can show the parent of a compound that is named as a salt. Where two headings read alike, the source gives them in different places.
System: LMP1 expression in Kem I cells
Experiment: microbe, parasite or virus in culture
Assay type: cell-based, EBV
Settings: for Average LMP1 Fold Increase / Replicate 1-LMP1 Fold Increase / Replicate 2-LMP1 Fold Increase: Kem I cells, 48 hours; for fold induction at 2.5 µM: human gammaherpesvirus 4, 48 h
[1] = dose 2.5 uM, LMP1 transcript by in-well qRT-PCR, average of the two replicates
[2] = dose 2.5 uM, LMP1 transcript by in-well qRT-PCR, screen replicate 1
[3] = dose 2.5 uM, LMP1 transcript by in-well qRT-PCR, screen replicate 2
[4] = 2.5 uM, average of replicates 1 and 2
[5] = 2.5 uM, fold change in LMP1 transcript vs vehicle
[6] = read-out: Average LMP1 Fold Increase, Kem I cells, 2.5 uM, 48 hours, average of replicates 1 and 2
[7] = read-out: Replicate 1-LMP1 Fold Increase, Kem I cells, 2.5 uM, 48 hours, fold change in LMP1 transcript vs vehicle
[8] = read-out: Replicate 2-LMP1 Fold Increase, Kem I cells, 2.5 uM, 48 hours, fold change in LMP1 transcript vs vehicle

Row | Compound | Average LMP1 Fold Increase [4] | Replicate 1-LMP1 Fold Increase [5] | Replicate 2-LMP1 Fold Increase [5] | further results
1 | N#C[C@@H]1CCCN1C(=O)CNC12CC3CC(CC(O)(C3)C1)C2 [Vildagliptin (LAF-237)] |  |  |  | Average LMP1 Fold Increase [1]: 0.72 fold; Replicate 1-LMP1 Fold Increase [2]: 0.58 fold; Replicate 2-LMP1 Fold Increase [3]: 0.87 fold
2 | O=C1NC(=O)/C(=C/c2cccc(C(F)(F)F)c2)S1 [SMI-4a] | 0.41 | 0.29 | 0.53 | 
3 | NC(=O)Nc1cc(-c2cccc(F)c2)sc1C(=O)N[C@H]1CCCNC1 [AZD7762] | 5.84 | 9.74 | 1.94 | 
4 | N#CC[C@H](C1CCCC1)n1cc(-c2ncnc3[nH]ccc23)cn1 [Ruxolitinib (INCB018424)] | 0.41 | 0.48 | 0.34 | 
5 | SN-38 | 1.10 | 0.95 | 1.26 | 
6 | CN(C)C(=O)c1ccc(S(=O)(=O)c2ccc(NC(=O)[C@@](C)(O)C(F)(F)F)c(Cl)c2)cc1 [AZD7545] | 0.67 | 0.40 | 0.94 | 
7 | Cc1cccc(-c2nn3c(c2-c2ccnc4ccc(C(N)=O)cc24)CCC3)n1 [LY2157299] | 0.30 | 0.30 | 0.30 | 
8 | COc1ccccc1OCCNCC(O)COc1cccc2[nH]c3ccccc3c12 (stereo not drawn) [Carvedilol] |  |  |  | fold induction at 2.5 µM [6]: 0.88; fold induction at 2.5 µM [7]: 0.89; fold induction at 2.5 µM [8]: 0.87
9 | O=C(Nc1cc(C(F)(F)F)cc(C(F)(F)F)c1)c1cc(Cl)ccc1O [IMD 0354] |  |  |  | fold induction at 2.5 µM [6]: 0.62; fold induction at 2.5 µM [7]: 0.74; fold induction at 2.5 µM [8]: 0.5
10 | O=C(NC(NC(=S)Nc1ccc(F)c([N+](=O)[O-])c1)C(Cl)(Cl)Cl)C(c1ccccc1)c1ccccc1 (stereo not drawn) [CGK 733] | 0.71 | 0.58 | 0.84 | 
11 | CN[C@@H](C)C(=O)N[C@H](C(=O)N1CCC[C@H]1C(=O)Nc1snnc1-c1ccccc1)C1CCCCC1 [GDC-0152] | 0.68 | 0.76 | 0.59 | 
12 | CC(C)(F)C[C@H](N[C@@H](c1ccc(-c2ccc(S(C)(=O)=O)cc2)cc1)C(F)(F)F)C(=O)NC1(C#N)CC1 [Odanacatib (MK-0822)] | 0.56 | 0.58 | 0.54 | 
13 | Cl.Cl.Cl.O[C@@H](COc1cccc2ncccc12)CN1CCN([C@@H]2c3ccccc3[C@@H]3[C@H](c4ccccc42)C3(F)F)CC1 [Zosuquidar (LY335979) 3HCl] |  |  |  | Average LMP1 Fold Increase [1]: 0.79 fold; Replicate 1-LMP1 Fold Increase [2]: 0.64 fold; Replicate 2-LMP1 Fold Increase [3]: 0.94 fold
14 | CN(C)CCOc1ccc(/C(=C(/CCCl)c2ccccc2)c2ccccc2)cc1 [Toremifene Citrate] |  |  |  | fold induction at 2.5 µM (read-out: Average LMP1 Fold Increase, Kem I cells, dose 2.5 uM, 48 hours, LMP1 transcript by in-well qRT-PCR, average of the two replicates): 0.54; fold induction at 2.5 µM (read-out: Replicate 1-LMP1 Fold Increase, Kem I cells, dose 2.5 uM, 48 hours, LMP1 transcript by in-well qRT-PCR, screen replicate 1): 0.55; fold induction at 2.5 µM (read-out: Replicate 2-LMP1 Fold Increase, Kem I cells, dose 2.5 uM, 48 hours, LMP1 transcript by in-well qRT-PCR, screen replicate 2): 0.54
15 | O=c1[nH]c2ccc(Cl)cc2c(N[C@@H]2CN3CCC2CC3)c1-c1nc2ccccc2[nH]1 [CHIR-124] | 68.46 | 105.57 | 31.35 | 
16 | Nc1nc(N)c2nc(-c3cccc(O)c3)c(-c3cccc(O)c3)nc2n1 [TG100-115] |  |  |  | Average LMP1 Fold Increase [1]: 0.53 fold; Replicate 1-LMP1 Fold Increase [2]: 0.33 fold; Replicate 2-LMP1 Fold Increase [3]: 0.73 fold
17 | Oc1ncnc2[nH]ncc12 [Allopurinol] |  |  |  | fold induction at 2.5 µM [6]: 0.11; fold induction at 2.5 µM [7]: 0.09; fold induction at 2.5 µM [8]: 0.13
18 | CN1C2CCCC1CC(NC(=O)c1nn(C)c3ccccc13)C2 (stereo not drawn) [Granisetron HCl] |  |  |  | fold induction at 2.5 µM [6]: 0.25; fold induction at 2.5 µM [7]: 0.25; fold induction at 2.5 µM [8]: 0.24
19 | CC(C)(C)c1cc(NC(=O)Nc2ccc(-c3cn4c(n3)sc3cc(OCCN5CCOCC5)ccc34)cc2)no1 [Quizartinib (AC220)] | 0.93 | 0.71 | 1.15 | 
